Results as given in patent EP0175171A2, “Use of 3,7,11,15-tetramethyl-2,4,6,10,14-hexadecapentaenoic acid for enhancing the effect of anti-tumour agents” (Eisai Co., Ltd., priority 1984, dated 1986).
Converted amounts (≈) assume the structure as drawn. Structures can show the parent of a compound that is named as a salt.

Columns and labels:
[1] = tested on: HeLa.S3 cell; assay: Enhancement of cytocidal effect: colony formation of HeLa S3 cells, known carcinostatic drug added simultaneously with the compound of the present invention, 7 days; assay type: cell-based, human; settings: for enhancement of the cytocidal effect of a carcinostatic drug: conclusion in words from the figures of Table 2 (CPM by the S9 mix protocol)
Protocol: Effect of the simultaneous use of a known carcinostatic agent and the compound (I) (Enhancement of cytocidal effect) • (1) Experimental material and procedure • ① Cell: Epithelical cell from human uterocervical cancer, HeLa.S3 cell • ② Cultivation: The cell was cultivated using a culture fluid obtained by adding 10 parts of fetal calf serum to 90 parts of Eagles Minimum Essential Medium in an incuvator having a carbon dioxide concentration controlled to 5% at 37°C. • ③ Drug: The compound of the present invention was added as a solution in dimethyl sulfoxide(DMSO) of a final DMSO concentration of 0.1% to the culture fluid. The clinical injections as shown in Table 1 were added to the culture fluid as a known carcinostatic drug. […] After the cultivation for 7 days, the cells were fixed with methanol and subjected to Giemsa's staining, followed by calculation of the number of colonies containing at least 20 cells under a stereomicroscope. The concentration (ng/mℓ) of the carcinostatic drug required to decrease the ratio of the number of colonies of a treated group to that of an untreated group (control) to 50% were determined and are shown as "IC50".

[2] = Toxicological test, oral administration for 14 days; assay type: in vivo; settings: female ICR mice, orally, 14 days, 40, 200 or 400 mg/kg/day
Protocol: The compound of the present invention, 3,7,11,15-tetramethyl-2,4,6,10,14-hexadecapentaenoic acid, was administered orally to each group consisting of six female ICR mice for 14 days at a dosage of 40, 200 or 400 mg/kg/day, respectively, to observe changes in the weight, the mortality or the like.

[3] = tested on: HeLa.S3 cell; assay: cells; settings: Homo sapiens
Protocol: The clinical injections as shown in Table 1 were added to the culture fluid as a known carcinostatic drug. [formula] • ④ Experimental procedure: 150 epithelical cells from human uterocervical cancer (HeLaS3 cell) were planted in each plastic dish of a diameter of 60 mm. […] After the cultivation for 7 days, the cells were fixed with methanol and subjected to Giemsa's staining, followed by calculation of the number of colonies containing at least 20 cells under a stereomicroscope. The concentration (ng/mℓ) of the carcinostatic drug required to decrease the ratio of the number of colonies of a treated group to that of an untreated group (control) to 50% were determined and are shown as "IC50".

[4] = Homo sapiens, HeLa S3, compound of the present invention 0 M; listed as 1): based on case where both compound and drug are 0, read-out: IC50 (ng/ml) 0 a)
[5] = Homo sapiens, HeLa S3, compound of the present invention 0 M; listed as 2): based on case where drug is 0 at the same compound concentration, read-out: IC50 (ng/ml) 0 a)
[6] = Homo sapiens, HeLa S3, compound of the present invention 3.2×10^-5 M; listed as 1): based on case where both compound and drug are 0, read-out: IC50 (ng/ml) 3.2×10^-5 d)
[7] = Homo sapiens, HeLa S3, compound of the present invention 3.2×10^-5 M; listed as 2): based on case where compound is 3.2×10^-5 M and drug is 0, read-out: IC50 (ng/ml) 3.2×10^-5 d)
[8] = Homo sapiens, HeLa S3, compound of the present invention 10^-5 M; listed as 1): based on case where both compound and drug are 0, read-out: IC50 (ng/ml) 10^-5 c)
[9] = Homo sapiens, HeLa S3, compound of the present invention 10^-5 M; listed as 2): based on case where compound is 10^-5 M and drug is 0, read-out: IC50 (ng/ml) 10^-5 c)
[10] = Homo sapiens, HeLa S3, compound of the present invention 10^-6 M; listed as 1): based on case where both compound and drug are 0, read-out: IC50 (ng/ml) 10^-6 b)
[11] = Homo sapiens, HeLa S3, compound of the present invention 10^-6 M; listed as 2): based on case where compound is 10^-6 M and drug is 0, read-out: IC50 (ng/ml) 10^-6 b)

| Molecule | enhancement of the cytocidal effect of a carcinostatic drug [1] | IC50 [1, 4] [ng/mL] | IC50 [1, 5] [ng/mL] | IC50 [1, 6] [ng/mL] | IC50 [1, 7] [ng/mL] | IC50 [1, 8] [ng/mL] | IC50 [1, 9] [ng/mL] | IC50 [1, 10] [ng/mL] | IC50 [1, 11] [ng/mL] | other results |
| --- | --- | --- | --- | --- | --- | --- | --- | --- | --- | --- |
| bleomycin hydrochloride [BLM] | particularly remarkable | – | – | – | – | – | – | – | – | – |
| O=c1[nH]cc(F)c(=O)[nH]1 [5-FU, fluorouracil] | particularly remarkable | 648 | 648 | 267 | 347 | 329 | 369 | 375 | 388 | – |
| COC(COC(N)=O)C1=C(N2CC2)C(=O)C(C)=C(N2CC2)C1=O (centres unmarked) [CQ, carboquone] | particularly remarkable | 0.339 | 0.339 | 0.076 | 0.131 | 0.242 | 0.275 | 0.273 | 0.253 | – |
| Cc1c(N)nc([C@H](CC(N)=O)NC[C@H](N)C(N)=O)nc1C(=O)N[C@H](C(=O)N[C@H](C)[C@@H](O)[C@H](C)C(=O)N[C@H](C(=O)NCCc1nc(-c2nc(C(=O)NCCCN[C@@H](C)c3ccccc3)cs2)cs1)[C@@H](C)O)[C@@H](O[C@@H]1O[C@@H](CO)[C@@H](O)[C@H](O)[C@@H]1O[C@H]1O[C@H](CO)[C@@H](O)[C@H](OC(N)=O)[C@@H]1O)c1c[nH]cn1.O=S(=O)(O)O [PEP, pepleomycin sulfate] | particularly remarkable | – | – | – | – | – | – | – | – | – |
| Nc1ccn([C@@H]2O[C@H](CO)[C@@H](O)[C@@H]2O)c(=O)n1 [Ara-C, cytarabine] | – | 10.9 | 10.9 | 6.25 | 11.6 | 11.4 | 12.4 | 11.9 | 12 | – |
| Cc1ncc(CNC(=O)N(CCCl)N=O)c(N)n1 [ACNU, minustine hydrochloride] | – | 135 | 135 | 102 | 136 | 146 | 150 | 143 | 147 | – |
| CC(C)=CCCC(C)=CCCC(C)=CC=CC(C)=CC(=O)O [compound of the present invention, 3,7,11,15-tetramethyl-2,4,6,10,14-hexadecapentaenoic acid] | synergisticly enhances the cytocidal effect of a carcinostatic drug | – | – | – | – | – | – | – | – | mortality [2]: No mice died |
| CO[C@@]12[C@H](COC(N)=O)C3=C(C(=O)C(C)=C(N)C3=O)N1C[C@@H]1N[C@@H]12 [MMC, mitomycin] | particularly remarkable | 1.5 | 1.5 | 0.4 | 0.84 | 0.74 | 0.82 | 1.05 | 1.06 | – |
| O=P1(N(CCCl)CCCl)NCCCO1 (centres unmarked) [CPM, cyclophosphamide] | particularly remarkable | – | – | – | – | – | – | – | – | IC50 ([3]; HeLa S3, read-out: IC50 (ng/ml) 0 a), S9 mix protocol; compound of the present invention 0 M; listed as 1): based on case where both compound and drug are 0): 4210 ng/mL (≈ 16.1 µM); IC50 ([3]; HeLa S3, read-out: IC50 (ng/ml) 0 a), S9 mix protocol; compound of the present invention 0 M; listed as 2): based on case where drug is 0 at the same compound concentration): 4210 ng/mL (≈ 16.1 µM); IC50 ([3]; HeLa S3, read-out: IC50 (ng/ml) 3.2×10^-5 d), S9 mix protocol; compound of the present invention 3.2×10^-5 M; listed as 1)): 1220 ng/mL (≈ 4.69 µM); IC50 ([3]; HeLa S3, read-out: IC50 (ng/ml) 3.2×10^-5 d), S9 mix protocol; compound of the present invention 3.2×10^-5 M; listed as 2)): 2300 ng/mL (≈ 8.82 µM); IC50 ([3]; HeLa S3, read-out: IC50 (ng/ml) 10^-5 c), S9 mix protocol; compound of the present invention 10^-5 M; listed as 1)): 1330 ng/mL (≈ 5.08 µM); IC50 ([3]; HeLa S3, read-out: IC50 (ng/ml) 10^-5 c), S9 mix protocol; compound of the present invention 10^-5 M; listed as 2)): 1970 ng/mL (≈ 7.56 µM); IC50 ([3]; HeLa S3, read-out: IC50 (ng/ml) 10^-6 b), S9 mix protocol; compound of the present invention 10^-6 M; listed as 1)): 3360 ng/mL (≈ 12.9 µM); IC50 ([3]; HeLa S3, read-out: IC50 (ng/ml) 10^-6 b), S9 mix protocol; compound of the present invention 10^-6 M; listed as 2)): 3160 ng/mL (≈ 12.1 µM) |
| COc1cccc2c1C(=O)c1c(O)c3c(c(O)c1C2=O)C[C@@](O)(C(=O)CO)C[C@@H]3O[C@H]1C[C@H](N)[C@H](O)[C@H](C)O1 [ADM, doxorubicin hydrochloride] | – | 3.79 | 3.79 | 1.88 | 3.14 | 2.43 | 4.15 | 3.1 | 3.51 | – |
| CC[C@]1(O)C[C@H]2CN(CCc3c([nH]c4ccccc34)[C@@](C(=O)OC)(c3cc4c(cc3OC)N(C=O)[C@H]3[C@@](O)(C(=O)OC)[C@H](OC(C)=O)[C@]5(CC)C=CCN6CC[C@]43[C@@H]65)C2)C1 [VCR, vincristine sulfate] | – | 5.5 | 5.5 | 2.63 | 5.65 | 6.38 | 7.7 | 7.44 | 7.45 | – |
| S=P(N1CC1)(N1CC1)N1CC1 [Thio-TEPA, Thio TEPA] | – | – | – | – | – | – | – | – | – | IC50 ([1]; Homo sapiens, HeLa S3, read-out: IC50 (ng/ml) 0 a), compound of the present invention 0 M; 1): based on case where both compound and drug are 0): 311 ng/mL; IC50 ([1]; Homo sapiens, HeLa S3, read-out: IC50 (ng/ml) 0 a), compound of the present invention 0 M; listed as 2): based on case where drug is 0 at the same compound concentration): 311 ng/mL; IC50 ([1]; Homo sapiens, HeLa S3, read-out: IC50 (ng/ml) 3.2×10^-5 d), compound of the present invention 3.2×10^-5 M; 2): based on case where compound is 3.2×10^-5 M and drug is 0): 244 ng/mL; IC50 ([1]; Homo sapiens, HeLa S3, read-out: IC50 (ng/ml) 3.2×10^-5 d), compound of the present invention 3.2×10^-5 M; listed as 1): based on case where both compound and drug are 0): 274 ng/mL; IC50 ([1]; Homo sapiens, HeLa S3, read-out: IC50 (ng/ml) 10^-5 c), compound of the present invention 10^-5 M; listed as 1): based on case where both compound and drug are 0): 299 ng/mL; IC50 ([1]; Homo sapiens, HeLa S3, read-out: IC50 (ng/ml) 10^-5 c), compound of the present invention 10^-5 M; listed as 2): based on case where compound is 10^-5 M and drug is 0): 319 ng/mL; IC50 ([1]; Homo sapiens, HeLa S3, read-out: IC50 (ng/ml) 10^-6 b), compound of the present invention 10^-6 M; 2): based on case where compound is 10^-6 M and drug is 0): 291 ng/mL; IC50 ([1]; Homo sapiens, HeLa S3, read-out: IC50 (ng/ml) 10^-6 b), compound of the present invention 10^-6 M; listed as 1): based on case where both compound and drug are 0): 274 ng/mL |
